The nature of the series: log P determination by HPLC (reversed-phase C18), EEC Directive 79/831 Annex V.A8. The class given is physicochemical. The note with it: pH 2.3, HPLC, reversed-phase C 18, 43° C., 0.1% aqueous phosphoric acid/acetonitrile, read-out: log P (pH 2.3). How it is done: The stated log P values were determined in accordance with EEC Directive 79/831 Annex V.A8 by HPLC (High Performance Liquid Chromatography) using a reversed-phase column, (C 18). Temperature: 43° C. Mobile phases for the determination in the acidic range: 0.1% aqueous phosphoric acid, acetonitrile; linear gradient from 10% acetonitrile to 90% acetonitrile. Calibration was carried out using unbranched alkan-2-ones (having 3 to 16 carbon atoms) with known logP values (determination of the logP values by the retention times using linear interpolation between two successive alkanones).

SMILES strings stand for the structures. Read-outs that look alike come from different tables or passages of the source.

Regarding `Cn1ccnc1COC(=O)CSc1nccc(-c2ccccn2)n1` [Example 201], where the note is “reversed-phase C18 HPLC column”, the chromatographic logP was 1.02.

`O=C(CSc1nccc(-c2ccccn2)n1)OCc1ccc(Cl)nc1` [Example 124]: for the setting “reversed-phase C18 HPLC column”, the chromatographic logP came to 2.31.

With `N#Cc1ccc(NC(=O)NCCOC(=O)CSc2nccc(-c3ccccn3)n2)cc1` [Example 146], the chromatographic logP (reversed-phase C18 HPLC column) came out at 2.3.

On to `O=C(CSc1nccc(-c2ccccn2)n1)OCC#CCCl` [Example 207], for which the chromatographic logP (reversed-phase C18 HPLC column) was 2.61.

`O=C(CSc1nccc(-c2ccccn2)n1)OCCOCC(F)(F)F` [Example 236]: the chromatographic logP (reversed-phase C18 HPLC column) was 2.7.

Turning to `CCOC(=O)CSc1nccc(-c2ncccc2CC)n1` [Example 266], under “reversed-phase C18 HPLC column”, the chromatographic logP was found to be 2.22.

Turning to `N#CCSc1nccc(-c2ccccn2)n1` [{[4-(2-pyridinyl)-2-pyrimidinyl]thio}acetonitrile], the chromatographic logP (reversed-phase C18 HPLC column) turned out to be 1.68.

Consider `O=C(CSc1nccc(-c2ccccn2)n1)NCc1ccc(Cl)cc1Cl` [Example 45], for which, under “reversed-phase C18 HPLC column”, the chromatographic logP came out at 2.69.

Take `O=C(NCCOC(=O)CSc1nccc(-c2ccccn2)n1)Nc1cccc2c1CCCC2` [Example 151]: under “reversed-phase C18 HPLC column”, the chromatographic logP was found to be 2.94.

`O=C(CSc1nccc(-c2ccccn2)n1)NCc1ccc(OC(F)(F)F)cc1` [Example 40]: the chromatographic logP (reversed-phase C18 HPLC column) was 2.76.

With `O=C(CSc1nccc(-c2ccccn2)n1)OC1COC1` [Example 249], the chromatographic logP (reversed-phase C18 HPLC column) was 1.69.

With `O=C(CSc1nccc(-c2ccccn2)n1)NCc1ccc(Cl)c(Cl)c1` [Example 44], the chromatographic logP (reversed-phase C18 HPLC column) came to 2.64.

With `Cn1nnnc1CSc1nccc(-c2ccccn2)n1` [Example 301], under “reversed-phase C18 HPLC column”, the chromatographic logP came out at 1.24.

For `Cc1cnn(CCOC(=O)CSc2nccc(-c3ccccn3)n2)n1` [Example 176], under “reversed-phase C18 HPLC column”, the chromatographic logP was 1.93.

For `COC(=O)c1ccc(NC(=O)CSc2nccc(-c3ccccn3)n2)cc1` [Example 309], the chromatographic logP (reversed-phase C18 HPLC column) is 2.16.

Regarding `O=C(CSc1nccc(-c2ccccn2)n1)OCC(F)=C(Cl)Cl` [Example 253], the chromatographic logP (reversed-phase C18 HPLC column) stood at 3.19.

Consider `CC(C)N1CCN(C(=O)CSc2nccc(-c3ccccn3)n2)CC1` [Example 58], for which the chromatographic logP (reversed-phase C18 HPLC column) stood at 0.95.

Take `CC(C)(C)OC(=O)NCCCOC(=O)CSc1nccc(-c2ccccn2)n1` [Example 142]: for the setting “reversed-phase C18 HPLC column”, the chromatographic logP is 2.79.

`CCOC(=O)CSc1nccc(-c2cc(C)ccn2)n1` [Example 102]: where the note is “reversed-phase C18 HPLC column”, the chromatographic logP is 2.2.

On to `CC(C)(C)n1nnc(CSc2nccc(-c3ccccn3)n2)n1` [Example 302], for which the chromatographic logP (reversed-phase C18 HPLC column) was 2.69.

Regarding `O=C(NCCCOC(=O)CSc1nccc(-c2ccccn2)n1)Nc1ccc(C(F)(F)F)cc1` [Example 153], the chromatographic logP (reversed-phase C18 HPLC column) is 3.2.

With `O=C(CSc1nccc(-c2ccccn2)n1)NCc1ccccn1` [Example 62], the chromatographic logP (reversed-phase C18 HPLC column) stood at 1.14.

In the case of `COC(=O)CCCOC(=O)CSc1nccc(-c2ccccn2)n1` [Example 200], the chromatographic logP (reversed-phase C18 HPLC column) is 2.21.

As for `COC(=O)CSc1nc(-c2ccccn2)cc(C(C)C)n1` [Example 112], the chromatographic logP (reversed-phase C18 HPLC column) worked out at 3.11.

As to `CCNC(=S)NCCOC(=O)CSc1nccc(-c2ccccn2)n1` [Example 172], the chromatographic logP (reversed-phase C18 HPLC column) was 1.79.

With `COCCOC(=O)CSc1nccc(-c2ccccn2)n1` [Example 20], the chromatographic logP (reversed-phase C18 HPLC column) was found to be 1.97.

Regarding `O=C(CSc1nccc(-c2ccccn2)n1)OCCc1noc(=O)[nH]1` [Example 250], the chromatographic logP (reversed-phase C18 HPLC column) was determined as 1.97.

For `CC1CN(C(=O)CSc2nccc(-c3ccccn3)n2)CC(C)O1` (stereo not drawn) [Example 60], the chromatographic logP (reversed-phase C18 HPLC column) turned out to be 1.94.

With `CC(C)=NNC(=O)CSc1nccc(-c2ccccn2)n1` [Example 136], the chromatographic logP (reversed-phase C18 HPLC column) was found to be 0.44.

Turning to `O=C(CSc1nccc(-c2ccccn2)n1)NCC1CC1` [Example 67], the chromatographic logP (reversed-phase C18 HPLC column) was determined as 1.83.

In the case of `O=C(CSc1nccc(-c2ccccn2)n1)OCC(F)(F)C(F)(F)F` [Example 118], the chromatographic logP (reversed-phase C18 HPLC column) was determined as 3.24.

With `CC(C)=CCOC(=O)CSc1nccc(-c2ccccn2)n1` [Example 96], the chromatographic logP (reversed-phase C18 HPLC column) was determined as 3.18.

Regarding `O=C(NCCCOC(=O)CSc1nccc(-c2ccccn2)n1)Nc1ccc(Cl)cc1Cl` [Example 139], the chromatographic logP (reversed-phase C18 HPLC column) came out at 3.2.

`CS(=O)(=O)NC(=O)CSc1nccc(-c2ccccn2)n1` [Example 140]: the chromatographic logP (reversed-phase C18 HPLC column) turned out to be 1.13.

With `CN(C(=O)CSc1nccc(-c2ccccn2)n1)c1ccc(Cl)cc1` [Example 3, N-(4-chlorophenyl)-N-methyl-2-{[4-(2-pyridinyl)-2-pyrimidinyl]thio}acetamide], the chromatographic logP (reversed-phase C18 HPLC column) was 2.73.

`CNC(=O)NCCCOC(=O)CSc1nccc(-c2ccccn2)n1` [Example 213]: the chromatographic logP (reversed-phase C18 HPLC column) was found to be 1.42.

Consider `NC(=O)CCSc1nccc(-c2ccccn2)n1` [Example 314], for which the chromatographic logP (reversed-phase C18 HPLC column) is 0.96.

Take `CCOC(=O)CSc1nccc(-c2nccc3ccccc23)n1` [Example 298]: the chromatographic logP (reversed-phase C18 HPLC column) came out at 2.51.

On to `CCOC(=S)CSc1nccc(-c2ccccn2)n1` [Example 115], for which, under “reversed-phase C18 HPLC column”, the chromatographic logP came to 3.3.

`C=CC(=O)OCCCOC(=O)CSc1nccc(-c2ccccn2)n1` [Example 224]: the chromatographic logP (reversed-phase C18 HPLC column) was 2.49.

As for `CC1(CCCOC(=O)CSc2nccc(-c3ccccn3)n2)OCCO1` [Example 303], for the setting “reversed-phase C18 HPLC column”, the chromatographic logP is 2.57.

Consider `CCOC(=O)NCc1nccc(-c2ccccn2)n1` [Example 8, ethyl [4-(2-pyridinyl)-2-pyrimidinyl]methylcarbamate], for which the chromatographic logP was found to be 1.14.

Consider `CCOC(=O)CSc1nccc(-c2cccc(C)n2)n1` [Example 105], for which the chromatographic logP (reversed-phase C18 HPLC column) was 2.46.

Regarding `CCCCOC(=O)CSc1nccc(-c2ccccn2)n1` [Example 100], the chromatographic logP (reversed-phase C18 HPLC column) came out at 3.07.

On to `O=C(CSc1nccc(-c2ccccn2)n1)N1CCOCC1` [Example 65], for which, where the note is “reversed-phase C18 HPLC column”, the chromatographic logP is 1.55.

For the compound `O=C(CSc1nccc(-c2ccccn2)n1)NCCc1ccc(OC(F)(F)F)cc1` [Example 38], the chromatographic logP (reversed-phase C18 HPLC column) turned out to be 2.96.

Take `COC(=O)/C(O)=C\c1nccc(-c2ccccn2)n1` [Example 34]: for the setting “reversed-phase C18 HPLC column”, the chromatographic logP turned out to be 1.89.

`O=C(CSc1nccc(-c2ccccn2)n1)NCc1ccc(Cl)nc1` [Example 53]: the chromatographic logP (reversed-phase C18 HPLC column) worked out at 1.71.

On to `Cc1noc(C)c1CCOC(=O)CSc1nccc(-c2ccccn2)n1` [Example 252], for which the chromatographic logP (reversed-phase C18 HPLC column) is 2.25.

`CC(=O)OC(C)C(C)OC(=O)CSc1nccc(-c2ccccn2)n1` (stereo not drawn) [Example 246]: where the note is “reversed-phase C18 HPLC column”, the chromatographic logP came out at 2.54.

Take `O=C(NCCOC(=O)CSc1nccc(-c2ccccn2)n1)Nc1ccc(C(F)(F)F)cc1` [Example 147]: the chromatographic logP (reversed-phase C18 HPLC column) was found to be 3.04.

With `CCOC(=O)CSc1nccc(-c2cc(-c3ccccc3)ccn2)n1` [Example 262], the chromatographic logP (reversed-phase C18 HPLC column) amounted to 3.54.

`N#Cc1ccc(NC(=O)NCCCOC(=O)CSc2nccc(-c3ccccn3)n2)cc1` [Example 152]: the chromatographic logP (reversed-phase C18 HPLC column) came out at 2.45.

As to `CCC(=O)NCCCOC(=O)CSc1nccc(-c2ccccn2)n1` [Example 216], under “reversed-phase C18 HPLC column”, the chromatographic logP worked out at 2.04.

As to `O=C(CSc1nccc(-c2ccccn2)n1)OCCCCOc1ccccc1` [Example 88], the chromatographic logP (reversed-phase C18 HPLC column) was 3.86.

Turning to `CC(C)(C)OC(=O)NCCOC(=O)CSc1nccc(-c2ccccn2)n1` [Example 141], the chromatographic logP (reversed-phase C18 HPLC column) turned out to be 2.63.

Turning to `O=C(CSc1nccc(-c2ccccn2)n1)NCc1ccc(F)c(Cl)c1` [Example 48], the chromatographic logP (reversed-phase C18 HPLC column) came to 2.42.
